Experimental data from patent publication US9017644B2, “Methods of treating autoimmune disorders and/or inflammatory disorders” (priority 2008, dated 2015).

Experiments:
[1] = test system: developing type II collagen arthritis; experiment: Rat collagen arthritis model, prophylactic IV treatment 3x/week, day 0-16 (Example 3); assay type: in vivo
From the text: (§1) Rat collagen induced arthritis is an experimental model of polyarthritis that has been widely used for preclinical testing of numerous anti-arthritic agents. Rat type II collagen arthritis results when rats are immunized against homologous or heterologous type II collagen. […] As used herein “significant” means that p≦0.05. Unless specified as “normal control” or “disease control” reference to “animal” means a rat with developing type II collagen arthritis.
(§2) Bovine Type II collagen (Sigma) was diluted with 0.1N acetic acid to a concentration of 4 mg/ml. and emulsified with an equal volume of Freund's incomplete adjuvant (Sigma).
The rats were anesthetized and given collagen injections spread over 3 subcutaneous sites on back on day 0 and day 6.

[2] = test system: developing type II collagen arthritis; experiment: Rat collagen arthritis model, dose responsive efficacy, IV or SC 2x/week (Example 4); assay type: in vivo; details: IV 2x/week, read-out: average ED50 value for efficacy (AUC+Final Paw Weight)
From the text: as §1, §2
(§3) The rats were anesthetized and given collagen injections spread over 3 subcutaneous sites on back on day 0 and day 6. […] Rats were weighed on days 0, 3, 6, and 9-18 of the study, and caliper measurements of ankles were taken every day beginning on day 9 (or day 0 of arthritis). After final body weight measurement on day 18, animals were euthanized, blood was drawn for serum (for clinical chemistries) and CBC analysis and tissues were collected. No clinical chemistry or CBC analysis was done for groups 5s and 12s, however these groups were sampled for drug levels for pharmacokinetic analysis.

[3] = Lewis, rat, in vivo, 18 day
From the text: as §3
Complete Blood Counts (CBC) and Clinical Chemistries were evaluated for each group.

[4] = test system: developing type II collagen arthritis; experiment: Rat collagen arthritis model, treatment alone or in combination with etanercept (Example 5); assay type: in vivo; details: for % decrease in ankle diameter verses disease control, drug alone: day 17
From the text: as §1
Bovine Type II collagen (Sigma) was diluted with 0.1N acetic acid to a concentration of 4 mg/ml. and emulsified with an equal volume of Freund's incomplete adjuvant (Sigma). Female Lewis rats (Charles River) were randomized by weigh into 10 study groups Table 3 identifies the groups that were used for evaluation of efficacy and Table 4 identifies the groups used for evaluation of toxicity.
Animals were anesthetized and immunized at the base of the tail and two sites on the back on day 0 and day 6. Animals were weighed on days 0, 3, 9-24. […] Treatment was administered either alone or in combination with etanercept, (1 mg/kg) dosed subcutaneously on days 9, 12 and 15. […] The remaining 4 animals were sacrificed for necropsy on day 16.

[5] = Observation on high dose MTX dosing preparation; assay type: physicochemical; details: 0.75 mg/kg dose preparation
[6] = batches 70 mg/kg, methotrexate 0.2 mg/kg, FIG. 5

| Compound | inhibition of ankle diameter AUC as compared to disease controls ([1]; Batch 1 and Batch 2 70 mg/kg, MTX 0.2 mg/kg, IV 3x/week, 17 day study) | inhibition of final paw weights as compared to disease controls ([1]; Batch 1 and Batch 2 70 mg/kg, MTX 0.2 mg/kg, IV 3x/week, day 17) | ankle cartilage damage, representative photomicrograph [1, 6] | ankle pannus and bone destruction, representative photomicrograph [1, 6] | ankle synovitis, representative photomicrograph [1, 6] | ED50 [2] | therapeutic index, considering bone marrow suppression at 0.5 mg/kg ([3]; 0.5 mg/kg) | dose value for life threatening toxicity (bone marrow suppression) ([3]; iv) | % decrease in ankle diameter verses disease control, drug alone ([4]; 0.25 mg/kg PO 2x/week) | decreases in ankle diameter from disease control, alone or in combination with etanercept ([4]; ATI-101 5, 20 and 65 mg/kg, MTX 0.25 mg/kg) | behaviour of high dose preparation in solution [5] | % decrease in ankle diameter verses disease control, drug alone ([4]; 1 mg/kg SC days 9, 12, 15) |
| --- | --- | --- | --- | --- | --- | --- | --- | --- | --- | --- | --- | --- |
| CN(Cc1cnc2nc(N)nc(N)c2n1)c1ccc(C(=O)N[C@@H](CCC(=O)O)C(=O)O)cc1 [MTX, Methotrexate] | 54% | 46% | minimal | minimal | moderate | 0.25 mg/kg | less than 2 | 0.75 mg/kg | 52% | Significant decreases | did not remain completely in solution | – |
| etanercept | – | – | – | – | – | – | – | – | – | – | – | 37% |
